Reference: US20230219956A1 (BETTA PHARMACEUTICALS CO.,LTD, priority 2019, published 2023)

Legend:
[1] = test system: MIA-PACA-2 cells; test: Cell proliferation assay, MIA-PACA-2 cells (Cell-titer Glo); type: cell-based; conditions: Homo sapiens, 96 h incubation
Method: (§1) Pave the MIA-PACA-2 cells into a 96-well ultra-low adsorption plate at 600 cells, 160 μL/well. After incubating overnight, compound solutions of gradient concentration was prepared, and added 40 μL of DMSO solution of the test compound of each concentration to the cells of each well. The final concentration of the compound is 10000, 2000, 400, 80, 16, 3.2, 0.64, 0.12, 0.025, 0 nM (the final concentration of DMSO is 0.25%). Incubated for 96 h at 37° C. and 5% CO2. 50 μL of Cell-titer Glo working solution was added to each well, shaked and mixed, and incubated at room temperature for 10 minutes. The multi-functional microplate reader read the luminescence value, and converted the luminescence value reading into inhibition percentage.
(§2) Inhibition percentage=(maximum value−reading)/(maximum value−minimum value)*100.
(§3) The “maximum value” was the DMSO control, the “minimum value” indicates the cell-free control group.
(§4) Graphpad Prism software was used to perform curve fitting and obtain IC50 value.
Refer to Table 3 for the IC50 data of some compounds in the examples inhibiting MIA-PACA-2 cells.

[2] = test system: H358 cells; test: Cell proliferation assay, H358 cells (Cell-titer Glo); type: cell-based; conditions: Homo sapiens, NCI-H358, 96 h incubation
Method: as §1, with “the H358” for “the MIA-PACA-2”, “cells on” for “cells into”, “plate with 2000 cells and 190” for “plate at 600 cells, 160”, “added 10” for “added 40”, “10000, 3333.3, 1111.1, 370.4, 123.5, 41.2, 13.7, 4.6, 1.5,” for “10000, 2000, 400, 80, 16, 3.2, 0.64, 0.12, 0.025,”
as §2, §3, §4
Refer to table 3 for the IC50 data of some compounds in the Examples for inhibiting H358 cells.

## C=CC(=O)N1CC2(CCN(c3nc(C4CCNCC4)nc4c(OCC(F)(F)F)c(-c5c(C)ccc6[nH]ncc56)c(C=C)cc34)CC2)C1 [Example 63, 1-(7-(7-(5-methyl-1H-indazol-4-yl)-2-(piperidin-4-yl)-8-(2,2,2-trifluoroethoxy)-6-vinylquinazoline-4-yl)-2,7-diazaspiro[3.5]nonan-2-yl)prop-2-en-1-one]
[1]
  IC50: 406 nM
[2]
  IC50: 187 nM

## C=CC(=O)N1CCC(c2nc(N3CCC4(CC3)CN(C(=O)C=C)C4)c3cc(C=C)c(-c4c(C)ccc5[nH]ncc45)c(OCC(F)(F)F)c3n2)CC1 [Example 64, 1-(4-(4-(2-acryloyl-2,7-diazazospiro [3.5]nonan-7-yl)-7-(5-methyl-1H-indazole-4-yl)-8-(2,2,2-trifluoroethoxy)-6-vinylquinazolin-2-yl)piperidin-1-yl) propyl-2-en-1-one]
[1]
  IC50: 57.1 nM
[2]
  IC50: 16.6 nM

## C=CC(=O)N1CC2(CCN(c3nc(C4CCN(C5COC5)CC4)nc4c(OCC(F)(F)F)c(-c5c(C)ccc6[nH]ncc56)c(C=C)cc34)CC2)C1 [Example 65, 1-(7-(7-(5-methyl-1H-indazol-4-yl)-2-(1-(oxacyclobutan-3-yl)piperidin-4-yl)-8-(2,2,2-trifluoroethoxy)-6-vinylquinazolin-4-yl)-2,7-diazspiro [3.5]nonan-2-yl) propyl-2-en-1-one]
[1]
  IC50: 8.9 nM
[2]
  IC50: 4.4 nM

## C=CC(=O)N1CC2(CCN(c3nc(C4CCN(C5CCN(C)CC5)CC4)nc4c(OCC(F)(F)F)c(-c5c(C)ccc6[nH]ncc56)c(C=C)cc34)CC2)C1 [Example 66, 1-(7-(7-(5-methyl-1H-indazol-4-yl)-2-(1′-methyl-[1,4-bipiperidine]-4-yl)-8-(2,2,2-trifluoroethoxy)-6-vinylquinazolin-4-yl)-2,7-diazspiro [3.5]nonan-2-yl) propyl-2-en-1-one]
[1]
  IC50: 8.5 nM
[2]
  IC50: 11.5 nM

## C=CC(=O)N1CC2(CCN(c3nc(C4CCN(C5CCC(C#N)CC5)CC4)nc4c(OCC(F)(F)F)c(-c5c(C)ccc6[nH]ncc56)c(C=C)cc34)CC2)C1 (stereo not shown) [Example 67, 4-(4-(4-(2-acryloyl-2,7-diazazospiro [3.5]nonan-7-yl)-7-(5-methyl-1H-indazole-4-yl)-8-(2,2,2-trifluoroethoxy)-6-vinylquinazolin-2-yl)piperidin-1-yl) cyclohexane-1-methylnitrile]
[1]
  IC50: 6.9 nM
[2]
  IC50: 4.6 nM

## C=CC(=O)N1CC2(CCN(c3nc(C4CCN(C(C)CO)CC4)nc4c(OCC(F)(F)F)c(-c5c(C)ccc6[nH]ncc56)c(C=C)cc34)CC2)C1 (stereo not drawn) [Example 68, l-(7-(2-(l-(1-hydroxypropane-2-yl)piperidin-4-yl)-7-(5-methyl-1H-indazol-4-yl)-8-(2,2,2-trifluoroethoxy)-6-vinylquinazolin-4-yl)-2,7-diazspiro [3.5]nonan-2-yl) propyl-2-en-1-one]
[1]
  IC50: 2.4 nM
[2]
  IC50: 1.6 nM

## C=CC(=O)N1CC2(CCN(c3nc(C4CCN(C5CCC5)CC4)nc4c(OCC(F)(F)F)c(-c5c(C)ccc6[nH]ncc56)c(C=C)cc34)CC2)C1 [Example 69, 1-(7-(2-(1-cyclobutylpiperidin-4-yl)-7-(5-methyl-1H-indazol-4-yl)-8-(2,2,2-trifluoroethoxy)-6-vinylquinazolin-4-yl)-2,7-diazspiro [3.5]nonan-2-yl) propyl-2-en-1-one]
[1]
  IC50: 3.7 nM
[2]
  IC50: 3.4 nM

## C=CC(=O)N1CC2(CCN(c3nc(C4CCN(CC(=O)C(C)(C)C)CC4)nc4c(OCC(F)(F)F)c(-c5c(C)ccc6[nH]ncc56)c(C=C)cc34)CC2)C1 [Example 70, 1-(4-(4-(2-acryloyl-2,7-diazspiro [3.5]nonan-7-yl)-7-(5-methyl-1H-indazole-4-yl)-8-(2,2,2-trifluoroethoxy)-6-vinylquinazolin-2-yl)piperidin-1-yl)-3,3-dimethylbutane-2-one]
[1]
  IC50: 13.7 nM
[2]
  IC50: 15.5 nM

## C=CC(=O)N1CC2(CCN(c3nc(C4CCN(C(C)C)CC4)nc4c(OCC(F)(F)F)c(-c5c(C)ccc6[nH]ncc56)c(C=C)cc34)CC2)C1 [Example 71]
[1]
  IC50: 8.3 nM
[2]
  IC50: 7.4 nM

## C=CC(=O)N1CC2(CCN(c3nc(C4CCN(C5CCN(C(C)=O)CC5)CC4)nc4c(OCC(F)(F)F)c(-c5c(C)ccc6[nH]ncc56)c(C=C)cc34)CC2)C1 [Example 72, 1-(7-(2-(1acetyl-[1,4'-bipiperidine]-4-yl)-7-(5-methyl-1H-indazole-4-yl)-8-(2,2,2-trifluoroethoxy)-6-vinylquinazolin-4-yl)-2,7-diazspiro [3.5]nonan-2-yl) propyl-2-en-1-one]
[1]
  IC50: 5.9 nM
[2]
  IC50: 5.2 nM

## C=CC(=O)N1CC2(CCN(c3nc(C4CCN(C5CCC(O)CC5)CC4)nc4c(OCC(F)(F)F)c(-c5c(C)ccc6[nH]ncc56)c(C=C)cc34)CC2)C1 (stereo not shown) [Example 73]
[1]
  IC50: 24.1 nM
[2]
  IC50: 24.3 nM

## C=CC(=O)N1CC2(CCN(c3nc(C4CCN(C5CCN(C6CC6)CC5)CC4)nc4c(OCC(F)(F)F)c(-c5c(C)ccc6[nH]ncc56)c(C=C)cc34)CC2)C1 [Example 74, 1-(7-(2-(1′-cyclopropyl-[1,4′-bipiperidine]-4-yl)-7-(5-methyl-1H-indazole-4-yl)-8-(2,2,2-trifluoroethoxy)-6-vinylquinazolin-4-yl)-2,7-diazspiro [3.5]nonan-2-yl) propyl-2-en-1-one]
[1]
  IC50: 10.3 nM
[2]
  IC50: 6.7 nM

## C=CC(=O)N1CC2(CCN(c3nc(C4CCN(CCF)CC4)nc4c(OCC(F)(F)F)c(-c5c(C)ccc6[nH]ncc56)c(C=C)cc34)CC2)C1 [Example 75, 1-(7-(2-(1-(2-(fluoroethyl))piperidin-4-yl)-7-(5-methyl-1H-indazole-4-yl)-8-(2,2,2-trifluoroethoxy)-6-vinylquinazolin-4-yl)-2,7-diazarospiro [3.5]nonan-2-yl) propyl-2-en-1-one]
[1]
  IC50: 3.6 nM
[2]
  IC50: 2.6 nM

## C=CC(=O)N1CC2(CCN(c3nc(C4CCN(CC5CC(F)(F)C5)CC4)nc4c(OCC(F)(F)F)c(-c5c(C)ccc6[nH]ncc56)c(C=C)cc34)CC2)C1 [Example 76, 1-(7-(2-(1-((3,3-difluorocyclobutyl)methyl)piperidin-4-yl)-7-(5-methyl-1H-indazole-4-yl)-8-(2,2,2-trifluoroethoxy)-6-vinylquinazolin-4-yl)-2,7-diazspiro [3.5]nonan-2-yl) propyl-2-en-1-one]
[1]
  IC50: 21.4 nM
[2]
  IC50: 19.3 nM

## C=CC(=O)N1CC2(CCN(c3nc(C4CCN(Cc5ccccc5)CC4)nc4c(OCC(F)(F)F)c(-c5c(C)ccc6[nH]ncc56)c(C=C)cc34)CC2)C1 [Example 77, 1-(7-(2-(1-benzylpiperidin-4-yl)-7-(5-methyl-1H-indazol-4-yl)-8-(2,2,2-trifluoroethoxy)-6-vinylquinazolin-4-yl)-2,7-diazarospiro [3.5]nonan-2-yl) propyl-2-en-1-one]
[1]
  IC50: 33.7 nM
[2]
  IC50: 37.6 nM

## C=CC(=O)N1CC2(CCN(c3nc(C4CCN(Cc5cnn(C)c5)CC4)nc4c(OCC(F)(F)F)c(-c5c(C)ccc6[nH]ncc56)c(C=C)cc34)CC2)C1 [Example 78, 1-(7-(7-(5-methyl-1H-indazol-4-yl)-2-(1-((1-methyl-1H-pyrazol-4-yl)methyl)piperidin-4-yl]-8-(2,2,2-trifluoroethoxy)-6-vinylquinazolin-4-yl)-2,7-diazarospiro [3.5]nonan-2-yl) propyl-2-en-1-one]
[1]
  IC50: 62.8 nM
[2]
  IC50: 27.2 nM

## C=CC(=O)N1CC2(CCN(c3nc(C4CCN(C5CCOC5)CC4)nc4c(OCC(F)(F)F)c(-c5c(C)ccc6[nH]ncc56)c(C=C)cc34)CC2)C1 (stereo not shown) [Example 79, 1-(7-(7-(5-methyl-1H-indazol-4-yl)-2-(1-(tetrahydrofuran-3-yl)piperidin-4-yl)-8-(2,2,2-trifluoroethoxy)-6-vinylquinazolin-4-yl)-2,7-diazspiro [3.5]nonan-2-yl) propyl-2-en-1-one]
[1]
  IC50: 3.5 nM
[2]
  IC50: 2.7 nM

## C=CC(=O)N1CC2(CCN(c3nc(C4CCN(C5CC(O)C5)CC4)nc4c(OCC(F)(F)F)c(-c5c(C)ccc6[nH]ncc56)c(C=C)cc34)CC2)C1 (stereo not shown) [Example 80]
[1]
  IC50: 46.1 nM
[2]
  IC50: 14.9 nM

## C=CC(=O)N1CC2(CCN(c3nc(C4CCN(C5CCN(C(=O)OCC)CC5)CC4)nc4c(OCC(F)(F)F)c(-c5c(C)ccc6[nH]ncc56)c(C=C)cc34)CC2)C1 [Example 82, Ethyl 4-(4-(2-acryloyl-2,7-diazspiro [3.5]nonan-7-yl)-7-(5-methyl-1H-indazole-4-yl)-8-(2,2,2-trifluoroethoxy) 6-vinylquinazolin-2-yl)-[1,4-bipiperidine]-1′-carboxylate]
[1]
  IC50: 12.5 nM
[2]
  IC50: 7.6 nM

## C=CC(=O)N1CC2(CCN(c3nc(C4CCN(C5CC6CCC(C5)N6C)CC4)nc4c(OCC(F)(F)F)c(-c5c(C)ccc6[nH]ncc56)c(C=C)cc34)CC2)C1 (stereo not shown) [Example 83, 1-(7-(7-(5-methyl-1H-indazole-4-yl)-2-(1-(8-methyl-8-azabicyclo [3.2.1]cindan-3-yl]piperidin-4-yl)8(2,2,2-trifluoroethoxy)-6-vinylquinazolin-4-yl)-2,7-diazspiro [3.5]nonan-2-yl) propyl-2-en-1-one]
[1]
  IC50: 136 nM
[2]
  IC50: 159 nM
